Experimental data taken from article PMC11606603, “The membrane domains of mammalian adenylyl cyclases are lipid receptors” (eLife, 2024).
Several values for one entry are separate records, joined by “and”; a condition that tells them apart may be missing. Identical values can stand only once.

Assays:
Type in all cases: biochemical
mAC4 = target: T1, mAC4 (Homo sapiens, UniProt Q8NFM4); test: AC assay, Gsα-stimulated mAC4 in membranes from transfected HEK293 cells
T1 construct: Human mAC genes were from GenScript and fitted with a C-terminal FLAG-tag; FLAG (C); made in house; host or cells: HEK293, permanently transfected; membrane preparation
T1 sequence (Q8NFM4 1-1077): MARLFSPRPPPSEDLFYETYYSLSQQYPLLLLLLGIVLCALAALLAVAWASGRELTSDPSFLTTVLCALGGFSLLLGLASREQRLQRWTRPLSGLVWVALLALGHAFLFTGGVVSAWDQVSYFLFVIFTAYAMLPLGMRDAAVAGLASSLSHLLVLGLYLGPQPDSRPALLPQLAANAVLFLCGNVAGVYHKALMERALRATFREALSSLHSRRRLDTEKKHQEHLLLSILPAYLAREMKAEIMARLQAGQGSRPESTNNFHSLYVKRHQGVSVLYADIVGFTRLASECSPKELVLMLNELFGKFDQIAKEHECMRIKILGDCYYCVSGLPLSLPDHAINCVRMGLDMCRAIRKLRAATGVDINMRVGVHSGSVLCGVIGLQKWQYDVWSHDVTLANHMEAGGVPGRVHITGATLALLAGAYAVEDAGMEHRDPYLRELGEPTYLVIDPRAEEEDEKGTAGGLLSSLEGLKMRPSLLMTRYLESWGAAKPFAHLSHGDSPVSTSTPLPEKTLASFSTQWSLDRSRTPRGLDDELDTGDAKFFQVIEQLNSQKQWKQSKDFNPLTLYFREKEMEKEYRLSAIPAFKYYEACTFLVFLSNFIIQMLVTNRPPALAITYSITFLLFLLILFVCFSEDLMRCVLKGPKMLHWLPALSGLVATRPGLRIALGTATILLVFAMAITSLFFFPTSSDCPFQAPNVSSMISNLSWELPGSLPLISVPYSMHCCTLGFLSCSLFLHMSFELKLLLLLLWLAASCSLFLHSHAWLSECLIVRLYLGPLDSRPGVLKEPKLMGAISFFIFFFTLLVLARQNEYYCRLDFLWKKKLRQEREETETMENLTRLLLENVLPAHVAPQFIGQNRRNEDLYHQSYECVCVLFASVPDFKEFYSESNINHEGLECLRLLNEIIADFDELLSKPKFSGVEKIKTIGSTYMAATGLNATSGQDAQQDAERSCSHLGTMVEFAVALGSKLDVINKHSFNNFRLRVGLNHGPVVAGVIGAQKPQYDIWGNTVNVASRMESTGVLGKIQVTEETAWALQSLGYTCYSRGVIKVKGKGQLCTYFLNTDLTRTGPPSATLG
Method: (§1) hAC sequences were from NCBI were: ADCY1: NM_021116.3; ADCY2: NM_020546.2; ADCY3: NM_004036.4; ADCY4: NM_001198568.2; ADCY5: NM_183357.2; ADCY6: NM_015270.4; ADCY7: NM_001114.4; ADCY8: NM_001115.2; ADCY9: NM_001116.3. Human mAC genes were from GenScript and fitted with a C-terminal FLAG-tag. […] The gene was synthesized by GenScript. HEK293 cells were maintained in Dulbeccos Modified Eagle Medium (DMEM) with 10% fetal bovine serum at 37°C and 5% CO2. Transfection with AC plasmids was with PolyJet (SignaGen, Frederick, MD, USA). Permanent cell lines were generated by selection for 7 days with 600 µg/ml G418 and maintained with 300 µg/ml For membrane preparation, cells were tyrpsinized, collected by centrifugation (3000 × g, 5 min) and lysed and homogenized in 20 mM HEPES, pH 7.5, 1 mM Ethylenediaminetetraacetic acid (EDTA), 2 mM MgCl2, 1 mM Dithiothreitol (DTT), one tablet of cOmplete, EDTA-free (per 50 ml) and 250 mM sucrose by 20 strokes in a potter homogenizer on ice. Debris was removed (5 min at 1000 × g, 0°C), membranes were collected at 100,000 × g, 60 min at 0°C, suspended and stored at −80°C in 20 mM MOPS, pH 7.5, 0.5 mM EDTA, 2 mM MgCl2. […] Three cerebral cortices were dissected and homogenized in 4.5 ml cold 48 mM Tris–HCl, pH 7.4, 12 mM MgC1_2, and 0.1 mM Ethylene glycol-bis(β-aminoethyl ether)-N,N,N′,N′-tetraacetic acid (EGTA) with a Polytron hand disperser (Kinematica AG, Switzerland). […] The pellet was washed once with 5 ml 1 mM KHCO3. The final suspension in 2 ml 1 mM KHCO3 was stored in aliquots at −80°C.
(§2) In a volume of 10 μl, AC activities were measured using 1 mM ATP, 2 mM MgCl2, 3 mM creatine phosphate, 60 μg/ml creatine kinase, and 50 mM MOPS pH 7.5. The cAMP assay kit from Cisbio (Codolet, France) was used for detection according to the supplier’s instructions. For each assay, a cAMP standard curve was established. EC50 and IC50 values were calculated by GraphPad Prism version 8.4.3 for Windows, GraphPad Software, San Diego, CA, USA, https://www.graphpad.com .

mAC1 = target: T2, mAC1 (Homo sapiens, UniProt Q08828); test: AC assay, Gsα-stimulated mAC1 in membranes from transfected HEK293 cells
T2 construct: Human mAC genes were from GenScript and fitted with a C-terminal FLAG-tag; FLAG (C); made in house; host or cells: HEK293, permanently transfected; membrane preparation
Method: as §1, §2

mAC8 = target: T3, mAC8 (Homo sapiens, UniProt P40145); test: AC assay, Gsα-stimulated mAC8 in membranes from transfected HEK293 cells; settings: 20µM fatty acid concentration
T3 construct: Human mAC genes were from GenScript and fitted with a C-terminal FLAG-tag; FLAG (C); made in house; host or cells: HEK293, permanently transfected; membrane preparation
Method: as §1, §2

mAC6 = target: T4, mAC6 (Homo sapiens, UniProt O43306); test: AC assay, Gsα-stimulated mAC6 in membranes from transfected HEK293 cells; settings: 20µM fatty acid concentration
T4 construct: Human mAC genes were from GenScript and fitted with a C-terminal FLAG-tag; FLAG (C); made in house; host or cells: HEK293, permanently transfected; membrane preparation
Method: as §1, §2

mAC5 = target: T5, mAC5 (Homo sapiens, UniProt O95622); test: AC assay, Gsα-stimulated mAC5 in membranes from transfected HEK293 cells; settings: 20µM fatty acid concentration
T5 construct: Human mAC genes were from GenScript and fitted with a C-terminal FLAG-tag; FLAG (C); made in house; host or cells: HEK293, permanently transfected; membrane preparation
Method: as §1, §2

mAC9 = target: T6, mAC9 (Homo sapiens, UniProt O60503); test: AC assay, Gsα-stimulated mAC9 in membranes from transfected HEK293 cells; settings: 300 nM Gsα, single experiments
T6 construct: Human mAC genes were from GenScript and fitted with a C-terminal FLAG-tag; FLAG (C); made in house; host or cells: HEK293, permanently transfected; membrane preparation
Method: as §1, §2

mAC7 = target: T7, mAC7 (Homo sapiens, UniProt P51828); test: AC assay, Gsα-stimulated mAC7 in membranes from transfected HEK293 cells; settings: Figure 5-figure supplement 2 left, 20 µM
T7 construct: Human mAC genes were from GenScript and fitted with a C-terminal FLAG-tag; FLAG (C); made in house; host or cells: HEK293, permanently transfected; membrane preparation
Method: as §1, §2

mAC3 = target: T8, mAC3 (Homo sapiens, UniProt O60266); test: AC assay, Gsα-stimulated mAC3 in membranes from transfected HEK293 cells; settings: for mAC3 activity [%] (100% = 300nM Gsα stimulation): fatty acid 20 µM, individual experiments
T8 construct: Human mAC genes were from GenScript and fitted with a C-terminal FLAG-tag; FLAG (C); made in house; host or cells: HEK293, permanently transfected; membrane preparation
Method: as §1, §2

mAC2 = target: T9, mAC2 (Homo sapiens, UniProt Q08462); test: AC assay, Gsα-stimulated mAC2 in membranes from transfected HEK293 cells; settings: Figure 5-figure supplement 1 left, 20 µM
T9 construct: Human mAC genes were from GenScript and fitted with a C-terminal FLAG-tag; FLAG (C); made in house; host or cells: HEK293, permanently transfected; membrane preparation
Method: as §1, §2

T3 sequence (P40145 whole entry): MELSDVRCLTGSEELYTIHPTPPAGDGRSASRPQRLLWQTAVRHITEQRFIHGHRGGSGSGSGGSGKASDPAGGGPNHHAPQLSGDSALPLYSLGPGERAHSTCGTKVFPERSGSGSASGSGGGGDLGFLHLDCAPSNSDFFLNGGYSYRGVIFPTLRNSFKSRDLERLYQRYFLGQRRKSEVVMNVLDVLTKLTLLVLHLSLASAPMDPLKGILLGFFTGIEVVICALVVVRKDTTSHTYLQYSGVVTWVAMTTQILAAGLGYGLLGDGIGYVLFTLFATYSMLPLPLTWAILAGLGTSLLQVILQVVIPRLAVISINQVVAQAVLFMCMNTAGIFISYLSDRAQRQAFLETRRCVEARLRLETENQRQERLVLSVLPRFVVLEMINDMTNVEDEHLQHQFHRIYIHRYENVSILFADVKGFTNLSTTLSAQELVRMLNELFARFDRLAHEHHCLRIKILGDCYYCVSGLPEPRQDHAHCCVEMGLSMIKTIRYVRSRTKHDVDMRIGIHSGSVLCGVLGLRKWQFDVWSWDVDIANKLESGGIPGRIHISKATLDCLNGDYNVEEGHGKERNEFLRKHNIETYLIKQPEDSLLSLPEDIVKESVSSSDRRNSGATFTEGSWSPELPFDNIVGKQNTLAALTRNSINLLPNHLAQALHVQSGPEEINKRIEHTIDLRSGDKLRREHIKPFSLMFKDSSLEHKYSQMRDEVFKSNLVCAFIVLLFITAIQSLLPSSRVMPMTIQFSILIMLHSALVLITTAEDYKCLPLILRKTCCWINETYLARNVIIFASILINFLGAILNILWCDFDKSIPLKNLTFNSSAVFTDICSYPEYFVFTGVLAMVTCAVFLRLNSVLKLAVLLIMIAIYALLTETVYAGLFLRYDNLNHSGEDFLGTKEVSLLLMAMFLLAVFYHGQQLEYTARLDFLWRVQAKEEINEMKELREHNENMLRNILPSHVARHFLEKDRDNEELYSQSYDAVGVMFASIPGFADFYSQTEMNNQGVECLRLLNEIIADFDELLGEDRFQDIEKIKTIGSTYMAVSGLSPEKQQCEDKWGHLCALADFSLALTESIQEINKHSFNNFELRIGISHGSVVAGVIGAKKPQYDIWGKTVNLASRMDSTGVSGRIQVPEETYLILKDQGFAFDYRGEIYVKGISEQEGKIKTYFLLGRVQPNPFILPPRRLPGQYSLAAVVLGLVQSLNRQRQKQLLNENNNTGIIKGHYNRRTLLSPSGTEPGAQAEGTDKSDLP
T7 sequence (P51828 whole entry): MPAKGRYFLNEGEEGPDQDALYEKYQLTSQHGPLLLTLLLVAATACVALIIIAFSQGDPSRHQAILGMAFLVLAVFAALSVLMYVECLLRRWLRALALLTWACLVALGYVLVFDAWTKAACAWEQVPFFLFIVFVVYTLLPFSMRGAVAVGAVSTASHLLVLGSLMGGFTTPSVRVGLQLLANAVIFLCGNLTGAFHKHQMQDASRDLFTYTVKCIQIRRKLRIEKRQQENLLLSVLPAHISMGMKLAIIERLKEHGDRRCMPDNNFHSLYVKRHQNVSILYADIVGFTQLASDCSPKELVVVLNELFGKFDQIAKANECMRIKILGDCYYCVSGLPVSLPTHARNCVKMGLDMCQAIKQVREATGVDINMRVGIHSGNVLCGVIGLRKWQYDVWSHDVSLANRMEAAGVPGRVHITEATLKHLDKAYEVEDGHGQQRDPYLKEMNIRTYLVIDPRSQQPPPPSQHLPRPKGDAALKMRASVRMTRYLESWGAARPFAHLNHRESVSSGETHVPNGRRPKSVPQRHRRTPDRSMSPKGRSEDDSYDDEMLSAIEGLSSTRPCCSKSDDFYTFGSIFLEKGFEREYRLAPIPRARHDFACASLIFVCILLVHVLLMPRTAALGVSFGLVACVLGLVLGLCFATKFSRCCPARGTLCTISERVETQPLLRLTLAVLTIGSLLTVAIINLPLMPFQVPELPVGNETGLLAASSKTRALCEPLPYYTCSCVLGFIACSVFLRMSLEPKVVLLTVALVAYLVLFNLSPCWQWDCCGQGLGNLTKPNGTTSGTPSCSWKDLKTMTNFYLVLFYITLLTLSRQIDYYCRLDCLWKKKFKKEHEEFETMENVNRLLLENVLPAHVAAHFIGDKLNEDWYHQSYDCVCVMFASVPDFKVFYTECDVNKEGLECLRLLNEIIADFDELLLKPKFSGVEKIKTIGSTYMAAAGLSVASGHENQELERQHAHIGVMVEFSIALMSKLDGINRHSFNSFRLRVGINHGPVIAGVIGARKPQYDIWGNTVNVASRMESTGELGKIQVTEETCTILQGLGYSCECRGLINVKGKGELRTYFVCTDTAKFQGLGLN
T7 sequence (P63092 2-394 Q227L partner): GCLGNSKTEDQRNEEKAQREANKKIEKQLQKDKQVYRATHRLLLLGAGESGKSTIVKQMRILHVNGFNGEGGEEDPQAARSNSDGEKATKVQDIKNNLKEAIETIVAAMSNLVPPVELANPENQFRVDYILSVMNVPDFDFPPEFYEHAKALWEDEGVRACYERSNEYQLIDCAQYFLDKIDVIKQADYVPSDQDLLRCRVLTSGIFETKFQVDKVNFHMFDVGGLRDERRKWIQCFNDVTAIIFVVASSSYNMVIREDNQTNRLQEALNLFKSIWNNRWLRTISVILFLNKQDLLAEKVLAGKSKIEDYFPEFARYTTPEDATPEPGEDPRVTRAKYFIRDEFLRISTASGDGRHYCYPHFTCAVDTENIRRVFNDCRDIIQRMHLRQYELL
T5 sequence (O95622 whole entry): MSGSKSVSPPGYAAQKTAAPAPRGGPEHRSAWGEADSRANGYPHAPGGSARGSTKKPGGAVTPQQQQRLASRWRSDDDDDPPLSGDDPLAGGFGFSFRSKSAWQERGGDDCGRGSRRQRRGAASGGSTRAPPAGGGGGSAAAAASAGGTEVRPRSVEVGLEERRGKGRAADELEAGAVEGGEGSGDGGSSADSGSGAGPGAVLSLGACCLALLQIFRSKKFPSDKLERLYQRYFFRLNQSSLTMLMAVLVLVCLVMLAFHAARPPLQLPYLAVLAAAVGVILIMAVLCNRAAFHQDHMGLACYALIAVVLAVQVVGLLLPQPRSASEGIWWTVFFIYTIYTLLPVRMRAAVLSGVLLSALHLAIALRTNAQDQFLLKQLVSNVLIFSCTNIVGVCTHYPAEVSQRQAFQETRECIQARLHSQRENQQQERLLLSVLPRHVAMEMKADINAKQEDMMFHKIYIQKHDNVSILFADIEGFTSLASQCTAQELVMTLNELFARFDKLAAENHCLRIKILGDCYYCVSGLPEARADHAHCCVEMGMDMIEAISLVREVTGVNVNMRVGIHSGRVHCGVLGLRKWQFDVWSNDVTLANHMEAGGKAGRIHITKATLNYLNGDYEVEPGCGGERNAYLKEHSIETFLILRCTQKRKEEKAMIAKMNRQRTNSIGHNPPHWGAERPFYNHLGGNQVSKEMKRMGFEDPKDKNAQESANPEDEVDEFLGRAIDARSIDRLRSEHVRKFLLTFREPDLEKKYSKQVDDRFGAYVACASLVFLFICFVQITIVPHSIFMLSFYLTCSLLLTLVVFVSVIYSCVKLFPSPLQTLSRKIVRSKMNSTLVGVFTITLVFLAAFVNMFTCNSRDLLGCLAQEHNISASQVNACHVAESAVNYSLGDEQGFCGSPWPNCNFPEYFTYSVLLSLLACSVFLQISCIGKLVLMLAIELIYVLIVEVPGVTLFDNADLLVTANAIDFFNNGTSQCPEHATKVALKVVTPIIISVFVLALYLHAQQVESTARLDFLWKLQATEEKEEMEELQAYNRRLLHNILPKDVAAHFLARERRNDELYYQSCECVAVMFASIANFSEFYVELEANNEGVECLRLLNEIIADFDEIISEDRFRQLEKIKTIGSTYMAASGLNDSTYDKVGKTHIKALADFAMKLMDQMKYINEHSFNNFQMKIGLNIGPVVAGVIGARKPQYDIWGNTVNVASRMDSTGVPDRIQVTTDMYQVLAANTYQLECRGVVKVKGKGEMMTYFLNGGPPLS
T2 sequence (Q08828 whole entry): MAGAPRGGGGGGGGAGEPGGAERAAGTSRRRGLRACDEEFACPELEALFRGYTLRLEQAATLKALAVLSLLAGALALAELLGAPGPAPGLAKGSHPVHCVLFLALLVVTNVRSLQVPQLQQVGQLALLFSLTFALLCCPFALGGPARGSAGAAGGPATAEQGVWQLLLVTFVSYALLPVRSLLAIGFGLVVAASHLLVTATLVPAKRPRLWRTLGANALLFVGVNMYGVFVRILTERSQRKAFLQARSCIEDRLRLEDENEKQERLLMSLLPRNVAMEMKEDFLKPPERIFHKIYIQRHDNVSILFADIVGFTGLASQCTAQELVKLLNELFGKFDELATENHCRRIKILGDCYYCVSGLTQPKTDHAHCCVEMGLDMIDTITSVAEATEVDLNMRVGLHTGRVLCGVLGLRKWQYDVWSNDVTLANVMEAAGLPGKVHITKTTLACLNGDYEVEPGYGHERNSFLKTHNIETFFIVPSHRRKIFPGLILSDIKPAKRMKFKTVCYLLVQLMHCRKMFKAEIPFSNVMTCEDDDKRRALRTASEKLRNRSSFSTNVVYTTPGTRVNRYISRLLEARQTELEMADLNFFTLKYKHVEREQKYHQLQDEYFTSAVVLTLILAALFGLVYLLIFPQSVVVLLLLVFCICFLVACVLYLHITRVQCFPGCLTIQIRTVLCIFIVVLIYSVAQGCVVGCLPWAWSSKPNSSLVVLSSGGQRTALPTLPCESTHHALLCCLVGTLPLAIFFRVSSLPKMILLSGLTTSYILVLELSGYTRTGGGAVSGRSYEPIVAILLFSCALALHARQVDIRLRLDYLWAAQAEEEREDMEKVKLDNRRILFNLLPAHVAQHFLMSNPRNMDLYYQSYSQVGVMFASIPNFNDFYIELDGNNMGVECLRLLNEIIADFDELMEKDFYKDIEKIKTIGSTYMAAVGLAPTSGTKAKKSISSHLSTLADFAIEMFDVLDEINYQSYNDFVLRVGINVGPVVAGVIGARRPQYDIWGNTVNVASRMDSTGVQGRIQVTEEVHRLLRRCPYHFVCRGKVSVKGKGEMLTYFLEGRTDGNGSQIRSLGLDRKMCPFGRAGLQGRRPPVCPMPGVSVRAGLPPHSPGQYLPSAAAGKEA

Compound	mAC4 activity [%] (100% = 300nM Gsα stimulation); 20µM fatty acid concentration (mAC4; 300 nM Gsα, single experiments)	mAC1 activity [%] (100% = 300nM Gsα stimulation); 20µM fatty acid concentration (mAC1; 300 nM Gsα, single experiments)	mAC8 activity [%] (100% = 300nM Gsα stimulation) (mAC8)	mAC6 activity [%] (100% = 300nM Gsα stimulation) (mAC6)	mAC5 activity [%] (100% = 300nM Gsα stimulation) (mAC5)	mAC9 activity [%] (100% = 300nM Gsα stimulation); 20µM fatty acid concentration (mAC9)	mAC7 activity [%] (100% = 300nM Gsα stimulation); 20µM fatty acid concentration (mAC7)	mAC3 activity [%] (100% = 300nM Gsα stimulation) (mAC3)	mAC2 activity [%] (100% = 300nM Gsα stimulation); 20µM fatty acid concentration (mAC2)	other results
CCCC/C=C\CCCCCCCC(=O)O [Myristoleic acid, Myristoleic ((9Z)-tetradecenoic) acid]	79% and 94% and 104%	90% and 103% and 77%	62% and 117% and 101%	92% and 96%	79% and 90% and 96%	88% and 116% and 130%	92% and 95% and 67%	82% and 156% and 95%	106% and 81% and 89%	
CCCCCCCCCCCCCCCCCC [Octadecane]	71% and 92%	96% and 100%	129% and 109%	80% and 141%	82% and 128%	70% and 95%	87% and 68%	67% and 79%	74% and 87%	
CCCCCC/C=C\CCCCCCCC(=O)O [Palmitoleic acid, Palmitoleic ((9Z)-hexadecenoic) acid]	58% and 74% and 53% and 64% and 83%	56% and 77% and 83% and 82% and 92%	116% and 103% and 76%	71% and 89% and 68%	99% and 92% and 101%		91% and 107% and 128%	151% and 133% and 248% and 259% and 116% and 136% and 292%	82% and 120% and 125%	Effect of lipid on 300 nM Gsα-stimulated mAC4 (mAC4; 20 µM, in words): somewhat less; IC50 (mAC4; attenuation of 300 nM Gsα-stimulated activity, read-out: IC50 for mAC4): 20 µM; activity at 0.1 µM (mAC4; read-out: mAC4 activity (%);(100% = Gsα stimulation) stimulated by 300nM Gsα, 0.1 µM, 300 nM Gsα, single experiments (reference point, all 100)): 100%; activity at 25 µM (mAC4; read-out: mAC4 activity (%);(100% = Gsα stimulation) stimulated by 300nM Gsα, 25 µM, 300 nM Gsα, single experiments): 49%; activity at 50 µM (mAC4; read-out: mAC4 activity (%);(100% = Gsα stimulation) stimulated by 300nM Gsα, 50 µM, 300 nM Gsα, single experiments): 19%; activity at 60 µM (mAC4; read-out: mAC4 activity (%);(100% = Gsα stimulation) stimulated by 300nM Gsα, 60 µM, 300 nM Gsα, single experiments): 75%; activity at 100 µM (mAC4; read-out: mAC4 activity (%);(100% = Gsα stimulation) stimulated by 300nM Gsα, 100 µM, 300 nM Gsα, single experiments): 44%; IC50 (mAC1): 49 µM; activity at 1 µM (mAC1; 1 µM, 300 nM Gsα, single experiments, read-out: mAC1 activity (%);(100% = Gsα stimulation) stimulated by 300nM Gsα): 84%; activity at 6 µM (mAC1; 6 µM, 300 nM Gsα, single experiments, read-out: mAC1 activity (%);(100% = Gsα stimulation) stimulated by 300nM Gsα): 97%; Effect of lipid on 300 nM Gsα-stimulated mAC1 (mAC1; 20 µM, in words): somewhat less; activity at 25 µM (mAC1; 25 µM, 300 nM Gsα, single experiments, read-out: mAC1 activity (%);(100% = Gsα stimulation) stimulated by 300nM Gsα): 50%; activity at 50 µM (mAC1; 50 µM, 300 nM Gsα, single experiments, read-out: mAC1 activity (%);(100% = Gsα stimulation) stimulated by 300nM Gsα): 31%; activity at 0.1 µM (mAC1; read-out: mAC1 activity (%);(100% = Gsα stimulation) stimulated by 300nM Gsα, 0.1 µM, 300 nM Gsα, single experiments (reference point, all 100)): 100%; mAC9 activity (%);(100% = Gsα stimulation) stimulated by 300nM Gsα (mAC9; 1 µM fatty acid): 136% and 130% and 125%; Effect of lipid on 300 nM Gsα-stimulated mAC3 (mAC3; 20 µM, in words): less efficacious
